According to patent US20200016159A1, “N3-CYCLICALLY SUBSTITUTED THIENOURACILS AND USE THEREOF” (Bayer Aktiengesellschaft, priority 2016, published 2020):

Biological target: T1, human adenosine A2b receptor (Homo sapiens, UniProt P29275)
T1 sequence (P29275 1-332): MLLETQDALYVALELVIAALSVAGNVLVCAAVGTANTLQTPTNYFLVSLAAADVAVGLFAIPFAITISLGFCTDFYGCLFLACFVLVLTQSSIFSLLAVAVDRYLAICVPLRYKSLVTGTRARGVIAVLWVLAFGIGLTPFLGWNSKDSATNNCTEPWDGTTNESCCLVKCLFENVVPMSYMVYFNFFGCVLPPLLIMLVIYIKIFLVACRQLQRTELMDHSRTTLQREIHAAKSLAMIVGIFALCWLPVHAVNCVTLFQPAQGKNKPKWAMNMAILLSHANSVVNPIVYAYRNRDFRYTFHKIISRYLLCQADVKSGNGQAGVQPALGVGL
Experiment: Cellular in vitro reporter gene test for A2b receptor activity (antagonism of NECA)
Format: cell-based
Parameters: expressed in transfected cells; host or cells: CHO-K1 (Chinese hamster ovary) with CRE-luciferase reporter
Conditions: recombinant CHO-K1 cells, CRE-luciferase reporter, co-incubation with EC50 concentration of NECA, 3 hours
Summary of the method: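 CHO-K1 cells expressing recombinant human A2b receptor plus a CRE-driven firefly luciferase reporter. Compounds co-incubated with NECA at its same-day EC50 concentration; luminescence read 3 hours after NECA addition. IC50 values, sometimes means of several determinations rounded to two significant figures.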

SMILES | IC50
Cc1c(CN2CCNC(=O)C2=O)sc2c1c(=O)n(C1COC1)c(=O)n2CCC(F)(F)F [Example 133, 6-[(2,3-Dioxopiperazin-1-yl)methyl]-5-methyl-3-(oxetan-3-yl)-1-(3,3,3-trifluoropropyl)thieno[2,3-d]pyrimidine-2,4(1H,3H)-dione] | 0.43 µM
COCCn1c(=O)n(C2CC2C)c(=O)c2c(C)c(CN3CCNC3=O)sc21 (single isomer, unassigned) [Example 259, 1-(2-Methoxyethyl)-5-methyl-3-(2-methylcyclopropyl)-6-[(2-oxoimidazolidin-1-yl)methyl]thieno[2,3-d]pyrimidine-2,4(1H,3H)-dione] | 0.0041 µM
Cc1c(CN2CCNC2=NC#N)sc2c1c(=O)n(C1CC1C)c(=O)n2CCOC(F)(F)F (racemic) [Example 264, [1-({5-Methyl-3-(2-methylcyclopropyl)-2,4-dioxo-1-[2-(trifluoromethoxy)ethyl]-1,2,3,4-tetrahydrothieno[2,3-d]pyrimidin-6-yl}methyl)imidazolidin-2-ylidene]cyanamide] | 0.016 µM
Cc1c(Cn2nc[nH]c2=O)sc2c1c(=O)n(C1CC(C)(C)C1)c(=O)n2CCC(F)(F)F [Example 168, 3-(3,3-Dimethylcyclobutyl)-5-methyl-6-[(5-oxo-4,5-dihydro-1,2,4-triazol-1-yl)methy]-1-(3,3,3-trifluoropropyl)thieno[2,3-d]pyrimidine-2,4(1H,3H)-dione] | 0.016 µM
COCCn1c(=O)n(C2CC3(CCC3)C2)c(=O)c2c(C)c(Cn3nc[nH]c3=O)sc21 [Example 183, 1-(2-Methoxyethyl)-5-methyl-6-[(5-oxo-4,5-dihydro-1H-1,2,4-triazol-1-yl)methyl]-3-(spiro[3.3]hept-2-yl)thieno[2,3-d]pyrimidine-2,4(1H,3H)-dione] | 0.07 µM
Cc1c(CN2CCNC2=O)sc2c1c(=O)n(C1CC1)c(=O)n2CCOC(C)C [Example 33, 3-Cyclopropyl-1-(2-isopropoxyethyl)-5-methyl-6-[(2-oxoimidazolidin-1-yl)methyl]thieno[2,3-d]pyrimidine-2,4(1H,3H)-dione] | 0.1 µM
Cc1c(Cn2nc[nH]c2=O)sc2c1c(=O)n(C1CC1)c(=O)n2CC1CCC(F)(F)C1 (racemic) [Example 209, 3-Cyclopropyl-1-[(3,3-difluorocyclopentyl)methyl]-5-methyl-6-[(5-oxo-4,5-dihydro-1H-1,2,4-triazol-1-yl)methyl]thieno[2,3-d]pyrimidine-2,4(1H,3H)-dione] | 0.2 µM
Cc1c(Cn2[nH]ccc2=O)sc2c1c(=O)n(C1CC1)c(=O)n2CCC(F)(F)F [Example 200, 3-Cyclopropyl-5-methyl-6-[(5-oxo-2,5-dihydro-H-pyrazol-1-yl)methyl]-1-(3,3,3-trifluoropropyl)thieno[2,3-d]pyrimidine-2,4(1H,3H)-dione] | 0.055 µM
CCn1c(=O)n([C@H]2C[C@@H]2C)c(=O)c2c(C)c(Cn3nc[nH]c3=O)sc21 [Example 316, 1-Ethyl-5-methyl-3-[(1S,2S)-2-methylcyclopropyl]-6-[(5-oxo-4,5-dihydro-1H-1,2,4-triazol-1-yl)methyl]thieno[2,3-d]pyrimidine-2,4(1H,3H)-dione] | 0.025 µM
Cc1c(CN2CCNC2=O)sc2c1c(=O)n([C@H]1C[C@@H]1C)c(=O)n2CC1CCO1 (stereo partly drawn) [Example 282, 5-Methyl-3-[(1S,2S)-2-methylcyclopropyl]-1-(oxetan-2-ylmethyl)-6-[(2-oxoimidazoliidin-1-yl)methyl]thieno[2,3-d]pyrimidine-2,4(1H,3H)-dione] | 0.0041 µM
Cc1c(CN2CCNC(=O)C2=O)sc2c1c(=O)n(C1CC1)c(=O)n2CCCF [Example 8, 3-Cyclopropyl-6-[(2,3-dioxopiperazin-1-yl)methyl]-1-(3-fluoropropyl)-5-methylthieno[2,3-d]pyrimidine-2,4(1H,3H)-dione] | 0.044 µM
Cc1c(Cn2nc[nH]c2=O)sc2c1c(=O)n(C1(C)CC1)c(=O)n2C[C@@H]1CCCO1 [Example 84, 5-Methyl-3-(1-methylcyclopropyl)-6-[(5-oxo-4,5-dihydro-1H-1,2,4-triazol-1-yl)methyl]-1-[(2S)-tetrahydrofuran-2-ylmethyl]thieno[2,3-d]pyrimidine-2,4(1H,3H)-dione] | 0.46 µM
COCCn1c(=O)n(C2CC2)c(=O)c2c(C)c(Cn3cc[nH]c3=O)sc21 [Example 28, 3-Cyclopropyl-1-(2-methoxyethyl)-5-methyl-6-[(2-oxo-2,3-dihydro-1H-imidazol-1-yl)methyl]thieno[2,3-d]pyrimidine-2,4(1H,3H)-dione] | 0.019 µM
Cc1c(CN2CCNC2=O)sc2c1c(=O)n(C1CC1C)c(=O)n2CC(F)F (racemic) [Example 234, 1-(2,2-Difluoroethyl)-5-methyl-3-(2-methylcyclopropyl)-6-[(2-oxoimidazolidin-1-yl)methyl]thieno[2,3-d]pyrimidine-2,4(1H,3H)-dione] | 0.0019 µM
COCCn1c(=O)n(C2CC(F)(F)C2)c(=O)c2c(C)c(CN3CCNC3=NC#N)sc21 [Example 126, [1-{[3-(3,3-Difluorocyclobutyl)-1-(2-methoxyethyl)-5-methyl-2,4-dioxo-1,2,3,4-tetrahydrothieno[2,3-d]pyrimidin-6-yl]methyl}imidazolidin-2-ylidene]cyanamide] | 0.014 µM
Cc1c(CN2CCNC2=O)sc2c1c(=O)n(C1(C)CC1)c(=O)n2CC1CCC1 [Example 61, 1-(Cyclobutylmethyl)-5-methyl-3-(1-methylcyclopropyl)-6-[(2-oxoimidazolidin-1-yl)methyl]thieno[2,3-d]pyrimidine-2,4(1H,3H)-dione] | 0.0054 µM
CCCCn1c(=O)n(C2CC2)c(=O)c2c(C)c(CN3CCNC3=O)sc21 [Example 3, 1-Butyl-3-cyclopropyl-5-methyl-6-[(2-oxoimidazolidin-1-yl)methyl]thieno[2,3-d]pyrimidine-2,4(1H,3H)-dione] | 0.0069 µM
COCCn1c(=O)n([C@H]2C[C@H](OC)C2)c(=O)c2c(C)c(CN3CCNC3=NC(=O)OC)sc21 [Example 151, Methyl [1-{[3-(trans-3-methoxycyclobutyl)-1-(2-methoxyethyl)-5-methyl-2,4-dioxo-1,2,3,4-tetrahydrothieno[2,3-d]pyrimidin-6-yl]methyl}imidazolidin-2-ylidene]carbamate] | 0.045 µM
CCCn1c(=O)n(C2CC2)c(=O)c2c(C)c(Cn3nc[nH]c3=O)sc21 [Example 195, 3-Cyclopropyl-5-methyl-6-[(5-oxo-4,5-dihydro-1H-1,2,4-triazol-1-yl)methyl]-1-propylthieno[2,3-d]pyrimidine-2,4(1H,3H)-dione] | 0.12 µM
COCCn1c(=O)n(C2CC2)c(=O)c2c(C)c(CN3CCNC(=O)C3=O)sc21 [Example 27, 3-Cyclopropyl-6-[(2,3-dioxopiperazin-1-yl)methyl]-1-(2-methoxyethyl)-5-methylthieno[2,3-d]pyrimidine-2,4(1H,3H)-dione] | 0.04 µM
Cc1c(Cn2[nH]ccc2=O)sc2c1c(=O)n(C1CC1C)c(=O)n2CCOC(F)(F)F (single isomer, unassigned) [Example 275, 5-Methyl-3-(2-methylcyclopropyl)-6-[(5-oxo-2,5-dihydro-1H-pyrazol-1-yl)methyl]-1-[2-(trifluoromethoxy)ethyl]thieno[2,3-d]pyrimidine-2,4(1H,3H)-dione] | 0.063 µM
Cc1c(CN2CCNC2=O)sc2c1c(=O)n(C1CC1C)c(=O)n2CC1CCOC1 (single isomer, unassigned) [Example 292, 5-Methyl-3-(2-methylcyclopropyl)-6-[(2-oxoimidazolidin-1-yl)methyl]-1-(tetrahydrofuran-3-ylmethyl)thieno[2,3-d]pyrimidine-2,4(1H,3H)-dione] | 0.15 µM
CCOCCn1c(=O)n(C2CC2)c(=O)c2c(C)c(Cn3nc[nH]c3=O)sc21 [Example 32, 3-Cyclopropyl-1-(2-ethoxyethyl)-5-methyl-6-[(5-oxo-4,5-dihydro-1H-1,2,4-triazol-1-yl)methyl]thieno[2,3-d]pyrimidine-2,4(1H,3H)-dione] | 0.43 µM
Cc1c(CN2CCNC2=O)sc2c1c(=O)n(C1CC1)c(=O)n2CCC(F)(F)F [Example 9, 3-Cyclopropyl-5-methyl-6-[(2-oxoimidazolidin-1-yl)methyl]-1-(3,3,3-trifluoropropyl)thieno[2,3-d]pyrimidine-2,4(1H,3H)-dione] | 0.0015 µM
Cc1c(CN2CCNC2=O)sc2c1c(=O)n(C1CC1(C)C)c(=O)n2CCCF (single isomer, unassigned) [Example 98, 3-(2,2-Dimethylcyclopropyl)-1-(3-fluoropropyl)-5-methyl-6-[(2-oxoimidazolidin-1-yl)methyl]thieno[2,3-d]pyrimidine-2,4(1H,3H)-dione] | 0.14 µM
CCCCn1c(=O)n([C@H]2C[C@@H]2C)c(=O)c2c(C)c(Cn3nc[nH]c3=O)sc21 [Example 318, 1-Butyl-5-methyl-3-[(1S,2S)-2-methylcyclopropyl]-6-[(5-oxo-4,5-dihydro-H-1,2,4-triazol-1-yl)methyl]thieno[2,3-d]pyrimidine-2,4(1H,3H)-dione] | 0.012 µM
COCCn1c(=O)n(C2CC2OC)c(=O)c2c(C)c(CN3CCNC3=O)sc21 (racemic) [Example 306, 3-(2-Methoxycyclopropyl)-1-(2-methoxyethyl)-5-methyl-6-[(2-oxoimidazolidin-1-yl)methyl]thieno[2,3-d]pyrimidine-2,4(1H,3H)-dione] | 0.016 µM
